US20030013764A1, “Use for a pyruvate dehydrogenase activator for the treatment of ischaemia in limbs” (priority 1995, published 2003)

Key:
[1] = system: contracting skeletal muscle of anaesthetised dogs; experiment: Muscle fatigue in contracting gracilis muscle of anaesthetised dogs; type: in vivo, Beagle dogs; conditions: following treatment with DCA (300 mg.kg−1 as sodium salt, infusion 45 min before contraction); 20 min stimulation at 3 Hz; fatigue=(peak tension—end tension)/peak tension
Protocol: The invention will now be further described by reference to the accompanying, non-limiting, experimental methods. In the following expermimental methods we have used the PDH kinase inhibitor dichloroacetate to determine if inhibitors of PDH kinase can reduce the rate of fatigue in contracting skeletal muscle of anaesthetised dogs which has blood flow limited to the same extent as patients with intermittent claudication. Suitable doses of DCA include these in the range 30 to 300 mg.kg^−1. In the experimental methods which follow DCA was administered (at a dose of 300 mg.kg^−1) as the sodium salt of dichloroacetic acid.
Female Alderley Park Beagle dogs (12-18 kg) were pre-medicated with morphine (10 mg, i.m.) 30 minutes prior to induction of anaesthesia with sodium pentobarbitone (45 mg kg-1 i.v., Sagatal.). […] Rectal temperature was constantly monitored and maintained (range 36.2° C.-38.6° C.) with a homeothermic heating blanket (Harvard Instruments, Edenbridge. Kent. UK).
The left external jugular vein was cannulated for continuous administration of anaesthetic (sodium pentobarbitone 12 mg/ml at a rate of5 -6 ml/hour) using an infusion pump (injectomat S. Fresenius. Villiers. France). […] All pressures were measured using strain gauge manometers (PDCR 75. Druck Ltd. Barendeecht. Netherlands) attached to d.c. bridle amplifiers (Lectromed. MT8P. St. Peter. Jersey). […]

gracilis muscle = experiment: Muscle metabolites in gracilis muscle biopsies of anaesthetised dogs; type: in vivo, Beagle dogs; design: Lactate / Ac.carn. (acetyl carnitine) / Free carnitine: unit not given here; conditions: for Ac.carn. (acetyl carnitine) / Free carnitine / Lactate / PCr (phosphocreatine): DCA treated
Protocol: Animals were divided into DCA treated and vehicle (isotonic saline) treated groups. DCA or vehicle was given after completion of the surgery by a constant infusion. 45 minutes later the contraction was started. Muscle fatigue was measured in both normal and flow limited muscles. Arterial blood samples were taken from the brachial artery and venous blood samples were taken from each gracilis muscle at rest, during contraction and following recovery. The contraction period was 20 minutes of stimulation of 3 Hz. Blood samples (0.4 ml) being taken for blood gas analysis and analysed immediately. Parameters recorded were pH, pCO2. pO2. oxygen saturation and total Haemoglobin. Further samples (1.0 ml) were taken for analysis of lactate, glucose and non esterified fatty acid (NEFA) concentration.
Following resting blood samples and after drug/vehicle infusion a resting muscle biopsy (6 mm diameter Bergstrom needle. Stille, Sweden and 6 mm diameter Allendale needle, Edinburgh, Scotland), was taken from each muscle. After 20 minutes of stimulation the muscle was then freeze clamped, while still being stimulated, and a thin portion of muscle was excised and frozen in liquid nitrogen (The whole process took less than 6 seconds with the top layer of muscle being frozen within 1 second). The muscle samples were then stored in liquid nitrogen before a portion was freeze dried and analysed.
The muscle sample was divided into two portions, one for analysis of ATP, phosphocreatine (PCr), creatine (Cr) and intramuscular lactate (Harris. R et al., Scand. Journal Clin Lab Invest.. 33,109-120, 1974). The other portion of muscle was stored wet in liquid nitrogen. Briefly, the first portion of muscle was freeze dried, dissected free of visible connective tissue and blood and then powdered and was extracted in ice cold perchloric acid (0.5M) and neutralised with potassium bicarbonate (2.2M). Glycogen content was assayed using the method described by Harris et al. 1974 (see above).
Acetylcarnitine, free carnitine were assessed, in the freeze dried extract, by the method described by Cederblad et al; Anal. Biochem., 185, (1990), 274-278. PDH activity (rest & exercise, active and total) from a sample of wet tissue using the method of Constantin-Teodosiu D et al.. “A sensitive radioisotopic assay of pyruvate dehydrogenase complex in human muscle tissue”. Anal. Biochem.. Volume 198, p347-351. 1991. This method is also described by Dumitru Constantin-Teodosiu. Doctoral Thesis “Regulation of pyruvate dehydrgenase complex activity and acetyl group formation in skeletal muscle during exercise”. Stockholm 1992. from the Department of Clinical Chemistry, Karolinska Institute. Huddinge University Hospital. S-141 86 Huddinge Sweden.

normal mice = conditions: cited from earlier work
volunteers = conditions: cited from earlier work
angina patients = conditions: cited from earlier work
[2] = system: patients with class III heart failure; conditions: human, in vivo; cited from earlier work
[3] = Normal flow muscle after 20 min stimulation
[4] = Resricted flow muscle after 20 min stimulation
[5] = angina patients undergoing catheterisation

SMILES: O=C(O)C(Cl)Cl [DCA, dichloroacetic acid]
- muscle fatigue [1]: 25.0%
- Changes in Pcr (gracilis muscle; DCA treated versus control): reduced
- Changes in lactate (gracilis muscle; DCA treated versus control): reduced
- Ac.carn. (acetyl carnitine) (gracilis muscle; [3]): 9.6 ± 3.2
- Free carnitine (gracilis muscle; [3]): 15.5 ± 2.5
- Lactate (gracilis muscle; [3]): 5.4 ± 1.6
- PCr (phosphocreatine) (gracilis muscle; [3]): 44.7 ± 3.2
- Ac.carn. (acetyl carnitine) (gracilis muscle; [4]): 16.9 ± 2.6
- Free carnitine (gracilis muscle; [4]): 9.6 ± 2.2
- Lactate (gracilis muscle; [4]): 18.1 ± 4.0
- PCr (phosphocreatine) (gracilis muscle; [4]): 38.9 ± 3.0
- Ac.carn. (acetyl carnitine) (gracilis muscle; Resting muscle): 19.6 ± 1.0
- Free carnitine (gracilis muscle; Resting muscle): 5.4 ± 1.6
- Lactate (gracilis muscle; Resting muscle): 5.7 ± 1.4
- PCr (phosphocreatine) (gracilis muscle; Resting muscle): 55.1 ± 2.5
- Acetyl group availability (gracilis muscle; at rest and during contraction (RF muscle), DCA treated group versus control): higher
- increase in treadmill exercise duration (normal mice): 20%
- oxidation of lactate (normal mice): increased
- reduction of lactate production (volunteers; volunteers during maximal and 50% maximal workload): up to 30%
- increase in maximal work capacity (volunteers; volunteers): 10%
- changes in heart rate or left ventricular inotropic state (LV dp/dtmax.) (angina patients; [5]): absence of changes
- increase in stroke volume (angina patients; [5]): 13%
- Myocardial efficiency (angina patients; angina patients, increased from 24%): 32%
- effects in patients with class III heart failure [2]: Beneficial effects
